Results as given in patent publication US5843889A, “Glycopeptide antibiotic derivatives” (Eli Lilly and Company, priority 1997, dated 1998).
In brackets after ≈: the same amount, converted by molar mass.

Key:
Assay in all cases: MIC, standard broth micro-dilution assay
Assay type in all cases: cell-based
[1] = system: Entercoccus faecalis 2041
Procedure: (§1) The formula I compounds have in vitro and in vivo activity against Gram-positive pathogenic bacteria. The MIC's were determined using a standard broth micro-dilution assay.

[2] = system: Entercoccus gallinarum 245
Procedure: as §1

Entercoccus faecalis 276 = system: Entercoccus faecalis 276
Procedure: as §1

Row | SMILES | MIC [1] [µg/mL] | MIC [2] [µg/mL] | MIC (Entercoccus faecalis 276) [µg/mL]
1 | CNC(CC(C)C)C(=O)NC1C(=O)NC(CC(N)=O)C(=O)NC2C(=O)NC3C(=O)NC(C(=O)NC(C(=O)O)c4cc(O)cc(O)c4-c4cc3ccc4O)C(OC3CC(C)(N)C(O)C(C)O3)c3ccc(c(Cl)c3)Oc3cc2cc(c3OC2OC(CO)C(O)C(O)C2OC2CC(C)(NCc3ccc(OC(=O)c4ccccc4)cc3)C(O)C(C)O2)Oc2ccc(cc2Cl)C1O (stereo not drawn) [Compound 150, 4-benzoyloxybenzyl] | ≤ 0.06 | 2 (≈ 1.11 µM) | 1 (≈ 0.555 µM)
2 | CCCCCCCCOc1ccc(-c2ccc(CNC3(C)CC(OC4C(Oc5c6cc7cc5Oc5ccc(cc5Cl)C(OC5CC(C)(N)C(O)C(C)O5)C5NC(=O)C(NC(=O)C7NC(=O)C(CC(N)=O)NC(=O)C(NC(=O)C(CC(C)C)NC)C(O)c7ccc(c(Cl)c7)O6)c6ccc(O)c(c6)-c6c(O)cc(O)cc6C(C(=O)O)NC5=O)OC(CO)C(O)C4O)OC(C)C3O)cc2)cc1 (stereo not drawn) [Compound 23, 4-[4-octyloxyphenyl]benzyl] | 32 (≈ 17 µM) | 8 (≈ 4.24 µM) | 32 (≈ 17 µM)
3 | CNC(CC(C)C)C(=O)NC1C(=O)NC(CC(N)=O)C(=O)NC2C(=O)NC3C(=O)NC(C(=O)NC(C(=O)O)c4cc(O)cc(O)c4-c4cc3ccc4O)C(OC3CC(C)(N)C(O)C(C)O3)c3ccc(c(Cl)c3)Oc3cc2cc(c3OC2OC(CO)C(O)C(O)C2OC2CC(C)(NCc3ccc(OS(C)(=O)=O)cc3)C(O)C(C)O2)Oc2ccc(cc2Cl)C1O (stereo not drawn) [Compound 149, 4-methylsulfonyloxybenzyl] | ≤ 0.06 | 16 (≈ 9.01 µM) | ≤ 0.06
4 | CNC(CC(C)C)C(=O)NC1C(=O)NC(CC(N)=O)C(=O)NC2C(=O)NC3C(=O)NC(C(=O)NC(C(=O)O)c4cc(O)cc(O)c4-c4cc3ccc4O)C(OC3CC(C)(N)C(O)C(C)O3)c3ccc(c(Cl)c3)Oc3cc2cc(c3OC2OC(CO)C(O)C(O)C2OC2CC(C)(NCc3ccc4c(c3O)Cc3ccccc3-4)C(O)C(C)O2)Oc2ccc(cc2Cl)C1O (stereo not drawn) [Compound 103, 2-[1-hydroxy]fluorenylmethyl] | ≤ 0.06 | 8 (≈ 4.48 µM) | 0.25 (≈ 0.14 µM)
5 | CNC(CC(C)C)C(=O)NC1C(=O)NC(CC(N)=O)C(=O)NC2C(=O)NC3C(=O)NC(C(=O)NC(C(=O)O)c4cc(O)cc(O)c4-c4cc3ccc4O)C(O)c3ccc(c(Cl)c3)Oc3cc2cc(c3OC2OC(CO)C(O)C(O)C2OC2CC(C)(NCc3cccc4ccccc34)C(O)C(C)O2)Oc2ccc(cc2Cl)C1O (stereo not drawn) [Compound 180, 1-napthylmethyl] | 0.25 (≈ 0.157 µM) | 0.25 (≈ 0.157 µM) | 2 (≈ 1.26 µM)
6 | CNC(CC(C)C)C(=O)NC1C(=O)NC(CC(N)=O)C(=O)NC2C(=O)NC3C(=O)NC(C(=O)NC(C(=O)O)c4cc(O)cc(O)c4-c4cc3ccc4O)C(OC3CC(C)(N)C(O)C(C)O3)c3ccc(c(Cl)c3)Oc3cc2cc(c3OC2OC(CO)C(O)C(O)C2OC2CC(C)(NCc3ccc(OCc4ccccc4)c(OCc4ccccc4)c3)C(O)C(C)O2)Oc2ccc(cc2Cl)C1O (stereo not drawn) [Compound 53] | 1 (≈ 0.528 µM) | 2 (≈ 1.06 µM) | 8 (≈ 4.22 µM)
7 | CNC(CC(C)C)C(=O)NC1C(=O)NC(CC(N)=O)C(=O)NC2C(=O)NC3C(=O)NC(C(=O)NC(C(=O)O)c4cc(O)cc(O)c4-c4cc3ccc4O)C(OC3CC(C)(N)C(O)C(C)O3)c3ccc(c(Cl)c3)Oc3cc2cc(c3OC2OC(CO)C(O)C(O)C2OC2CC(C)(NCC3CCC(c4ccccc4)C3)C(O)C(C)O2)Oc2ccc(cc2Cl)C1O (stereo not drawn) [Compound 140, 3-phenylcyclopentylmethyl] | ≤ 0.06 | 8 (≈ 4.57 µM) | 0.5 (≈ 0.286 µM)
8 | CNC(CC(C)C)C(=O)NC1C(=O)NC(CC(N)=O)C(=O)NC2C(=O)NC3C(=O)NC(C(=O)NC(C(=O)O)c4cc(O)cc(O)c4-c4cc3ccc4O)C(OC3CC(C)(N)C(O)C(C)O3)c3ccc(cc3)Oc3cc2cc(c3OC2OC(CO)C(O)C(O)C2OC2CC(C)(NCc3ccc(-c4ccccc4)cc3)C(O)C(C)O2)Oc2ccc(cc2Cl)C1O (stereo not drawn) [Compound 182, 4-phenylbenzyl] | 1 (≈ 0.58 µM) | 1 (≈ 0.58 µM) | 1 (≈ 0.58 µM)
9 | CNC(CC(C)C)C(=O)NC1C(=O)NC(CC(N)=O)C(=O)NC2C(=O)NC3C(=O)NC(C(=O)NC(C(=O)O)c4cc(O)cc(O)c4-c4cc3ccc4O)C(OC3CC(C)(N)C(O)C(C)O3)c3ccc(c(Cl)c3)Oc3cc2cc(c3OC2OC(CO)C(O)C(O)C2OC2CC(C)(NCc3ccc(OCCOCCCl)cc3)C(O)C(C)O2)Oc2ccc(cc2Cl)C1O (stereo not drawn) [Compound 75] | ≤ 0.06 | 4 (≈ 2.22 µM) | ≤ 0.06
10 | CNC(CC(C)C)C(=O)NC1C(=O)NC(CC(N)=O)C(=O)NC2C(=O)NC3C(=O)NC(C(=O)NC(C(=O)O)c4cc(O)cc(O)c4-c4cc3ccc4O)C(OC3CC(C)(N)C(O)C(C)O3)c3ccc(c(Cl)c3)Oc3cc2cc(c3OC2OC(CO)C(O)C(O)C2OC2CC(C)(NCc3ccc4ccc5cccc6ccc3c4c56)C(O)C(C)O2)Oc2ccc(cc2Cl)C1O (stereo not drawn) [Compound 16, 1-pyrenylmethyl] | 0.5 (≈ 0.277 µM) | 1 (≈ 0.553 µM) | 2 (≈ 1.11 µM)
11 | CNC(CC(C)C)C(=O)NC1C(=O)NC(CC(N)=O)C(=O)NC2C(=O)NC3C(=O)NC(C(=O)NC(C(=O)O)c4cc(O)cc(O)c4-c4cc3ccc4O)C(OC3CC(C)(N)C(O)C(C)O3)c3ccc(c(Cl)c3)Oc3cc2cc(c3OC2OC(CO)C(O)C(O)C2OC2CC(C)(NCc3ccc4ccccc4n3)C(O)C(C)O2)Oc2ccc(cc2Cl)C1O (stereo not drawn) [Compound 30, 2-quinolylmethyl] | ≤ 0.06 | ≤ 0.06 | 0.25 (≈ 0.144 µM)
12 | CNC(CC(C)C)C(=O)NC1C(=O)NC(CC(N)=O)C(=O)NC2C(=O)NC3C(=O)NC(C(=O)NC(C(=O)O)c4cc(O)cc(O)c4-c4cc3ccc4O)C(OC3CC(C)(N)C(O)C(C)O3)c3ccc(c(Cl)c3)Oc3cc2cc(c3OC2OC(CO)C(O)C(O)C2OC2CC(C)(NCc3cccc(OCC4CCCCC4)c3)C(O)C(C)O2)Oc2ccc(cc2Cl)C1O (stereo not drawn) [Compound 123, 3-[cyclohexylmethoxy]benzyl] | ≤ 0.06 | 1 (≈ 0.557 µM) | 0.25 (≈ 0.139 µM)
13 | CC#CCCCCCCCCCCNC1(C)CC(OC2C(Oc3c4cc5cc3Oc3ccc(cc3Cl)C(OC3CC(C)(N)C(O)C(C)O3)C3NC(=O)C(NC(=O)C5NC(=O)C(CC(N)=O)NC(=O)C(NC(=O)C(CC(C)C)NC)C(O)c5ccc(c(Cl)c5)O4)c4ccc(O)c(c4)-c4c(O)cc(O)cc4C(C(=O)O)NC3=O)OC(CO)C(O)C2O)OC(C)C1O (stereo not drawn) [Compound 199, 11-tridecynyl] | ≤ 0.06 | 4 (≈ 2.26 µM) | 1 (≈ 0.565 µM)
14 | CNC(CC(C)C)C(=O)NC1C(=O)NC(CC(N)=O)C(=O)NC2C(=O)NC3C(=O)NC(C(=O)NC(C(=O)O)c4cc(O)cc(O)c4-c4cc3ccc4O)C(OC3CC(C)(N)C(O)C(C)O3)c3ccc(c(Cl)c3)Oc3cc2cc(c3OC2OC(CO)C(O)C(O)C2OC2CC(C)(NCc3ccc(-c4ccc(OC)cc4)s3)C(O)C(C)O2)Oc2ccc(cc2Cl)C1O (stereo not drawn) [Compound 71, 5-[4-methoxyphenyl]-2-thienylinethyl] | 1 (≈ 0.557 µM) | 8 (≈ 4.46 µM) | 2 (≈ 1.11 µM)
15 | CCCCCC#Cc1ccc(CNC2(C)CC(OC3C(Oc4c5cc6cc4Oc4ccc(cc4Cl)C(OC4CC(C)(N)C(O)C(C)O4)C4NC(=O)C(NC(=O)C6NC(=O)C(CC(N)=O)NC(=O)C(NC(=O)C(CC(C)C)NC)C(O)c6ccc(c(Cl)c6)O5)c5ccc(O)c(c5)-c5c(O)cc(O)cc5C(C(=O)O)NC4=O)OC(CO)C(O)C3O)OC(C)C2O)cc1 (stereo not drawn) [Compound 227, 4-[1-heptynyl]benzyl] | 0.25 (≈ 0.141 µM) | 4 (≈ 2.25 µM) | 0.5 (≈ 0.281 µM)
16 | CNC(CC(C)C)C(=O)NC1C(=O)NC(CC(N)=O)C(=O)NC2C(=O)NC3C(=O)NC(C(=O)NC(C(=O)O)c4cc(O)cc(O)c4-c4cc3ccc4O)C(OC3CC(C)(N)C(O)C(C)O3)c3ccc(c(Cl)c3)Oc3cc2cc(c3OC2OC(CO)C(O)C(O)C2OC2CC(C)(NCCc3ccc4ccccc4c3)C(O)C(C)O2)Oc2ccc(cc2Cl)C1O (stereo not drawn) [Compound 179, 2-[2-napthyl]ethyl] | ≤ 0.06 | 1 (≈ 0.573 µM) | ≤ 0.06
17 | CNC(CC(C)C)C(=O)NC1C(=O)NC(CC(N)=O)C(=O)NC2C(=O)NC3C(=O)NC(C(=O)NC(C(=O)O)c4cc(O)cc(O)c4-c4cc3ccc4O)C(OC3CC(C)(N)C(O)C(C)O3)c3ccc(c(Cl)c3)Oc3cc2cc(c3OC2OC(CO)C(O)C(O)C2OC2CC(C)(NCc3ccc(-c4ccc(Cl)cc4)cc3)C(O)C(C)O2)Oc2ccc(cc2Cl)C1O (stereo not drawn) [Compound 229, 4-[4-chlorophenyl]benzyl-A82846B] | ≤ 0.06 | 2 (≈ 1.12 µM) | 0.25 (≈ 0.139 µM)
18 | CNC(CC(C)C)C(=O)NC1C(=O)NC(CC(N)=O)C(=O)NC2C(=O)NC3C(=O)NC(C(=O)NC(C(=O)O)c4cc(O)cc(O)c4-c4cc3ccc4O)C(OC3CC(C)(N)C(O)C(C)O3)c3ccc(c(Cl)c3)Oc3cc2cc(c3OC2OC(CO)C(O)C(O)C2OC2CC(C)(NCc3ccc(OC(F)(F)C(F)F)cc3)C(O)C(C)O2)Oc2ccc(cc2Cl)C1O (stereo not drawn) [Compound 121, 4-[1,1,2,2-tetrafluoroethoxy]benzyl] | ≤ 0.06 | 2 (≈ 1.11 µM) | ≤ 0.06
19 | CNC(CC(C)C)C(=O)NC1C(=O)NC(CC(N)=O)C(=O)NC2C(=O)NC3C(=O)NC(C(=O)NC(C(=O)O)c4cc(O)cc(O)c4-c4cc3ccc4O)C(OC3CC(C)(N)C(O)C(C)O3)c3ccc(c(Cl)c3)Oc3cc2cc(c3OC2OC(CO)C(O)C(O)C2OC2CC(C)(NCCc3cccc(Oc4ccccc4)c3)C(O)C(C)O2)Oc2ccc(cc2Cl)C1O (stereo not drawn) [Compound 62, 3-phenoxyphenethyl] | ≤ 0.06 | 4 (≈ 2.24 µM) | 0.5 (≈ 0.28 µM)
20 | CNC(CC(C)C)C(=O)NC1C(=O)NC(CC(N)=O)C(=O)NC2C(=O)NC3C(=O)NC(C(=O)NC(C(=O)O)c4cc(O)cc(O)c4-c4cc3ccc4O)C(OC3CC(C)(N)C(O)C(C)O3)c3ccc(c(Cl)c3)Oc3cc2cc(c3OC2OC(CO)C(O)C(O)C2OC2CC(C)(NCc3cccc(Oc4ccc(Cl)cc4)c3)C(O)C(C)O2)Oc2ccc(cc2Cl)C1O (stereo not drawn) [Compound 86] | ≤ 0.06 | 1 (≈ 0.553 µM) | ≤ 0.06
